Converted amounts (≈) assume the structure as drawn.
Key:
[1] = Liposome oxidation assay (AAPH-induced oxidation, DPH-PA probe); type: biochemical; settings: for IC50: 30 min oxidation, 37 °C, pH 7.4, read-out: IC50 AAPH PC (inhibition of AAPH induced oxidation of phosphatidylcholine liposomes)
Method: Small unilamellar liposomes (SUV) consisted of phosphatidylcholine (egg-PC) were prepared in accordance with the methodology described by Gabrielska and Oszmiański. The lipids were dissolved in chloroform (100 mg/mL), evaporated to dryness under nitrogen and under vacuum for another 60 min. Subsequently, a phosphate buffer […] of pH 7.4 was added and liposomes were formed by mechanical shaking. Then SUVs were formed using a 20 kHz sonicator for 15 min. During sonication the samples were thermostated at 0–2 °C. In the study, PC liposomes at a concentration of 0.1 mg/mL in phosphate buffer (pH 7.4) were used. Liposomes prepared according to the presented-above procedure were used to determine the antioxidative activity and in fluorometric studies.
Antioxidant activities of Q 7-MeGlu and Q were determined using a fluorometric method described earlier by Strugała et al. with minor modifications. The studies were carried out on PC liposomes, which contained the fluorescent probe DPH-PA. Use was made of the relationship between DPH-PA fluorescence intensity and concentration of free radicals. The probe’s fluorescence decreased with its rising oxidation caused by free radicals, supplied by AAPH. Molecules of this compound underwent thermal decomposition into two free radicals each. The value of relative intensity of DPH-PA fluorescence was adopted as a measure of the degree of lipid membrane oxidation. It was calculated as a ratio of fluorescence intensity after 30 min of oxidation in the presence of antioxidants to the initial value of the intensity. The studied polyphenolic compounds scavenged free radicals and thus caused a lower rate of DPH-PA fluorescence decrease. PC liposomes at a concentration of 0.1 mg/mL in phosphate buffer (pH 7.4) were used, incubated for 0.5 h in darkness with addition of DPH-PA probe at a concentration of 1 µM (stock solutions were prepared in DMF). […] The wavelengths of excitation and emission for the probe were as follows: λex = 355 nm, λem = 430 nm. Oxidation was initiated just before measurement, using AAPH at a concentration of […] (dissolved in water) at 37 °C (control sample), or in the presence of test substances (Q 7-MeGlu and Q). The concentrations of studied compounds fluctuated in the range 3–7 µM for Q 7-MeGlu and 2–5 µM for Q. The measurements were conducted with a Cary Eclipse fluorimeter.

[2] = ref [12]; cited from earlier work
[3] = Solubility in water (literature values); type: physicochemical; settings: from cited values

Compound	IC50 [1]	antioxidative activity, fold higher than L-(+)-ascorbic acid ([1]; from IC50 values)	antioxidative activity, fold lower than quercetin ([1]; from IC50 values)	solubility in water [2]	solubility, fold lower than rutin [3]
CO[C@H]1[C@H](O)[C@@H](O)[C@H](Oc2cc(O)c3c(=O)c(O)c(-c4ccc(O)c(O)c4)oc3c2)O[C@@H]1CO [Q 7-MeGlu, quercetin 7-O-β-D-(4″-O-methyl)glucopyranoside]	5.47 ± 0.47 µM	ca. 24 fold	ca. 1.2 fold	–	–
O=c1c(O)c(-c2ccc(O)c(O)c2)oc2cc(O)cc(O)c12 [Quercetin, 3,3′,4′,5,7-pentahydroxyflavone]	4.49 ± 0.24 µM	–	–	0.512 µg/mL (≈ 1.69 µM)	more than 240 fold

— publication PMC6151435, “Bioactivity In Vitro of Quercetin Glycoside Obtained in Beauveria bassiana Culture and Its Interaction with Liposome Membranes” (Molecules : A Journal of Synthetic Chemistry and Natural …, 2017)
